From patent publication US11739098B2 (BRISTOL-MYERS SQUIBB COMPANY, priority 2017, dated 2023) come the findings set out here.

Type in all cases: cell-based
In one assay the target is T1, human TLR9 (Homo sapiens, UniProt Q9NR96).
T1 construct: host or cells: HEK-Blue cells (HEK293-derived reporter line)
T1 sequence (Q9NR96 26-1032): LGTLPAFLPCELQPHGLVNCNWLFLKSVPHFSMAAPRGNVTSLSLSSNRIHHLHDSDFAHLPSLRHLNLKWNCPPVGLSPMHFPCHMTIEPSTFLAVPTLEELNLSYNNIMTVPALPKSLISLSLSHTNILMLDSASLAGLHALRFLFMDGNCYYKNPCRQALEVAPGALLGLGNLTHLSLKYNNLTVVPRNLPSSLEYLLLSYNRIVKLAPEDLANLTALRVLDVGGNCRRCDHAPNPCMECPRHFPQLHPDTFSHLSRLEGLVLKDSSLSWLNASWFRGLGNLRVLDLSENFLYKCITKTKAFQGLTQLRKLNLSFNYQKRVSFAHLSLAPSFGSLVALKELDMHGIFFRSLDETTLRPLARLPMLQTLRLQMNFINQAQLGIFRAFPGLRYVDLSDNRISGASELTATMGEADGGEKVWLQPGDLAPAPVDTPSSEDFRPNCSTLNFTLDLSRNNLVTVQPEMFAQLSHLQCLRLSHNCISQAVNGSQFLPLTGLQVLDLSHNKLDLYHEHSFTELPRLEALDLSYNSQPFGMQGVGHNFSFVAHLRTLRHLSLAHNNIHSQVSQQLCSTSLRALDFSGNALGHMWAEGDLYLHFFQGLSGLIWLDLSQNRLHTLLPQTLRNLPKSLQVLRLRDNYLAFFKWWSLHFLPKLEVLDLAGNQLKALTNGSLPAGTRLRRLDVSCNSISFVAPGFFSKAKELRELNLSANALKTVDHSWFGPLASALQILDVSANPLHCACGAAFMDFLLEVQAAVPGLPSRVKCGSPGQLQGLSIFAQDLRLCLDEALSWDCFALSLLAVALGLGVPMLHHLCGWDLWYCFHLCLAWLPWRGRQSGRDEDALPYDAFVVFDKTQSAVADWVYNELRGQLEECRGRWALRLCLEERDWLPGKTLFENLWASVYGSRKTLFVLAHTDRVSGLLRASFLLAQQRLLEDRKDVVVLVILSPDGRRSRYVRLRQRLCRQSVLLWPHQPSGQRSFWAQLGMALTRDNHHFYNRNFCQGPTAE
Nature of the assay: TLR9 inhibition reporter assay (HEK-Blue cells, SEAP reporter, ODN2006 stimulation). The following applies: HEK-Blue cells overexpressing human TLR9, SEAP reporter, ODN2006 5 nM. The procedure, abridged: (§1)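 After 22 h at 37 °C, SEAP secretion was measured from human TLR7-, TLR8- or TLR9-expressing HEK-Blue reporter cells given compound (0.05 nM–50 μM) 30 min before agonist: 7.5 μM gardiquimod, 15.9 μM R848 or 5 nM ODN2006 respectively. Percent inhibition referenced to agonist-plus-DMSO and known-inhibitor wells.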
For orientation: Reporter assays use an easily measured gene product as a stand-in for the process of interest.

The next assay has as its target T2, human TLR8 (Homo sapiens, UniProt Q9NR97).
T2 construct: host or cells: HEK-Blue cells (HEK293-derived reporter line)
T2 sequence (Q9NR97 27-1041): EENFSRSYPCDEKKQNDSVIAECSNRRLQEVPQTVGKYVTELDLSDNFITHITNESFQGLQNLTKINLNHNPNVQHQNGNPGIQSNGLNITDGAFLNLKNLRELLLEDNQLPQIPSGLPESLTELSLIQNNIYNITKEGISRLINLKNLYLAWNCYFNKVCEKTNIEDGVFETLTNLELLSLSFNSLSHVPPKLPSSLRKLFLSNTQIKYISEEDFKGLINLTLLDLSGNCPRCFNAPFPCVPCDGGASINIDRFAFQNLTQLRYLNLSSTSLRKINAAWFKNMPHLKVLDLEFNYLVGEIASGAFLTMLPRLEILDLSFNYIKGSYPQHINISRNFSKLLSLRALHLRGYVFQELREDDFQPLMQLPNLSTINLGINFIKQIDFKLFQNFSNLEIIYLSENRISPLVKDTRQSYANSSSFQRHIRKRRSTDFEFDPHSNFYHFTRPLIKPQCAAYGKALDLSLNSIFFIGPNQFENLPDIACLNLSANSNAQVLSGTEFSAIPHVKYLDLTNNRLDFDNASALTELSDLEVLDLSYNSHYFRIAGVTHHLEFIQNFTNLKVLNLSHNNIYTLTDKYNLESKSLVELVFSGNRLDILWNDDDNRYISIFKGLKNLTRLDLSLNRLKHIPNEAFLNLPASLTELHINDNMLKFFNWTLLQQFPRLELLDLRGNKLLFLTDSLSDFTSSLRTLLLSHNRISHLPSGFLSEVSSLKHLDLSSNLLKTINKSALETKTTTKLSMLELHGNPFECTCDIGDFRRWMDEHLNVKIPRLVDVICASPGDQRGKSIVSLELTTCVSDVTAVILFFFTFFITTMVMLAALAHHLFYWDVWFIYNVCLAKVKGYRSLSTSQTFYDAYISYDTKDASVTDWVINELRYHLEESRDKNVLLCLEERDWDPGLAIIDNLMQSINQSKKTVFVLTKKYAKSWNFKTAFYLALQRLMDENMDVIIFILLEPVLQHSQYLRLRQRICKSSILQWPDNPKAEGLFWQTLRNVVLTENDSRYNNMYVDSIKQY
The assay can be described thus: TLR8 inhibition reporter assay (HEK-Blue cells, SEAP reporter, R848 stimulation). The following applies: HEK-Blue cells overexpressing human TLR8, SEAP reporter, R848 15.9 μM. The procedure, abridged:
as §1

The target in the next assay is T3, human TLR7 (Homo sapiens, UniProt Q9NYK1).
T3 construct: host or cells: HEK-Blue cells (HEK293-derived reporter line)
T3 sequence (Q9NYK1 27-1049): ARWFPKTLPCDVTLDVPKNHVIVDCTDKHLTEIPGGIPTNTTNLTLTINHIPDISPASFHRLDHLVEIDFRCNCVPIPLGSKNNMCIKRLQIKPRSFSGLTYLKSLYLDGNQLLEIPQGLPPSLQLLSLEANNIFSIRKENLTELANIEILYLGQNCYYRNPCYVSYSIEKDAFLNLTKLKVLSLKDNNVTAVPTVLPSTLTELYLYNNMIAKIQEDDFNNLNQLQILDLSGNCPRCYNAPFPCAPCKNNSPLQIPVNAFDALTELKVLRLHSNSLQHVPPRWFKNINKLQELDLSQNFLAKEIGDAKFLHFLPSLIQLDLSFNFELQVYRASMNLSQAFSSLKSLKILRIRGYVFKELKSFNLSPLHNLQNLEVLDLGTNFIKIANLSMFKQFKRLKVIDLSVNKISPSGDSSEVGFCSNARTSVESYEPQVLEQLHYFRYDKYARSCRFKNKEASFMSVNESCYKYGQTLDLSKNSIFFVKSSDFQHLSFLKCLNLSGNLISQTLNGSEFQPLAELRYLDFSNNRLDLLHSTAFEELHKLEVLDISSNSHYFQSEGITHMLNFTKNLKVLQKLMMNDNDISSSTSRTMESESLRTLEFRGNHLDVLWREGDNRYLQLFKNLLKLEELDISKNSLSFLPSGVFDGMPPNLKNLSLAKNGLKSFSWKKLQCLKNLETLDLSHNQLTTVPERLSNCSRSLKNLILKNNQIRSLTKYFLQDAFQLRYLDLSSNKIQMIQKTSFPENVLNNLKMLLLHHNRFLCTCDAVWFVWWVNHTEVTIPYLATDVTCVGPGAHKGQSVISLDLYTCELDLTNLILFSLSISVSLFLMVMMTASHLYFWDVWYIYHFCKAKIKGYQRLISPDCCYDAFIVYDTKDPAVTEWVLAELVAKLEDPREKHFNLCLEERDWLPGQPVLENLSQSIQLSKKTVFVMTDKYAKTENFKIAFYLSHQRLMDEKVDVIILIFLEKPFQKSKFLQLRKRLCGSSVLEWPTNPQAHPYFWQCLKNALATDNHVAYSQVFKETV
Nature of the assay: TLR7 inhibition reporter assay (HEK-Blue cells, SEAP reporter, gardiquimod stimulation). The following applies: HEK-Blue cells overexpressing human TLR7, SEAP reporter, gardiquimod 7.5 μM. The procedure, abridged:
as §1

As a reminder, the IC50 is the concentration needed to halve the response being measured. A high value points to a need for much substance.

`Cc1nc2c(C)cc(-c3[nH]c4ccc(C5CCN(CC(=O)N(C)C)CC5)cc4c3C(C)C)cn2c1C` [Example 396, 2-(4-(3-isopropyl-2-(2,3,8-trimethylimidazo[1,2-a]pyridin-6-yl)-1H-indol-5-yl)piperidin-1-yl)-N,N-dimethylacetamide]: the IC50 against human TLR9 was 100 to 1000 nM; against human TLR8, 100 to 1000 nM; against human TLR7, under 100 nM.
On to `CNC(=O)CN1CCC(c2ccc3[nH]c(-c4cc(C)c5nccn5c4)c(C(C)C)c3c2)CC1` [Example 397, 2-(4-(3-isopropyl-2-(8-methylimidazo[1,2-a]pyridin-6-yl)-1H-indol-5-yl)piperidin-1-yl)-N-methylacetamide], for which the figures for the IC50 against human TLR9, on human TLR8 and against human TLR7 were 100 to 1000 nM, under 100 nM and under 100 nM, respectively.
Consider `Cc1cc(-c2[nH]c3ccc(C4CCN(CC(=O)N(C)C)CC4)cc3c2C(C)C)cn2ccnc12` [Example 398, 2-(4-(3-isopropyl-2-(8-methylimidazo[1,2-a]pyridin-6-yl)-1H-indol-5-yl)piperidin-1-yl)-N,N-dimethylacetamide], for which the IC50 is 100 to 1000 nM at human TLR9, under 100 nM at human TLR8 and under 100 nM at human TLR7.
In the case of `Cc1nn2ccc(-c3[nH]c4ccc(C5CCN(CC(=O)N(C)C)CC5)cc4c3C(C)C)cc2c1F` [Example 399, 2-(4-(2-(3-fluoro-2-methylpyrazolo[1,5-a]pyridin-5-yl)-3-isopropyl-1H-indol-5-yl)piperidin-1-yl)-N,N-dimethylacetamide], the half-maximal inhibitory concentration (IC50) was 1000 to 50000 nM at human TLR9, 1000 to 50000 nM on human TLR8 and under 100 nM against human TLR7.
In the case of `Cc1nn2ccc(-c3[nH]c4ccc(C5CCN(CC(=O)N(C)C)CC5)cc4c3C(C)C)nc2c1F` [Example 400, 2-(4-(2-(3-fluoro-2-methylpyrazolo[1,5-a]pyrimidin-5-yl)-3-isopropyl-1H-indol-5-yl)piperidin-1-yl)-N,N-dimethylacetamide], the IC50 against human TLR9 was 1000 to 50000 nM; on human TLR8, 1000 to 50000 nM; against human TLR7 it was over 3130 nM.
With `CC(C)c1c(-c2ccc3nccn3c2)[nH]c2ccc(C3CCN(CC(=O)NCC(F)(F)F)CC3)cc12` [Example 401, 2-(4-(2-(imidazo[1,2-a]pyridin-6-yl)-3-isopropyl-1H-indol-5-yl)piperidin-1-yl)-N-(2,2,2-trifluoroethyl)acetamide], the IC50 at human TLR9 was in the range of 1000 to 50000 nM; against human TLR8 it was 100 to 1000 nM; on human TLR7, 100 to 1000 nM.
Turning to `CC(C)NC(=O)CN1CCC(c2ccc3[nH]c(-c4ccc5nccn5c4)c(C(C)C)c3c2)CC1` [Example 402, 2-(4-(2-(imidazo[1,2-a]pyridin-6-yl)-3-isopropyl-1H-indol-5-yl)piperidin-1-yl)-N-isopropylacetamide], the IC50 is 1000 to 50000 nM at human TLR9, 100 to 1000 nM on human TLR8 and under 100 nM against human TLR7.
On the same counts, the results for `CNC(=O)CN1CCC(c2ccc3[nH]c(-c4ccc5nccn5c4)c(C(C)C)c3c2)CC1` [Example 403, 2-(4-(2-(imidazo[1,2-a]pyridin-6-yl)-3-isopropyl-1H-indol-5-yl)piperidin-1-yl)-N-methylacetamide] are 1000 to 50000 nM, under 100 nM and under 100 nM.
For `CCOc1cc(-c2[nH]c3ccc(C4CCN(CC(=O)N(C)C)CC4)cc3c2C(C)C)cc2nc(C)nn12` [Example 404, 2-(4-(2-(5-ethoxy-2-methyl-[1,2,4]triazolo[1,5-a]pyridin-7-yl)-3-isopropyl-1H-indol-5-yl)piperidin-1-yl)-N,N-dimethylacetamide] the same measures were 1000 to 50000 nM, under 100 nM and under 100 nM.
For `CNC(=O)CN1CCC(c2ccc3[nH]c(-c4ccn5nccc5c4)c(C(C)C)c3c2)CC1` [Example 405, 2-(4-(3-isopropyl-2-(pyrazolo[1,5-a]pyridin-5-yl)-1H-indol-5-yl)piperidin-1-yl)-N-methylacetamide] the same measures were 1000 to 50000 nM, under 100 nM and under 100 nM.
With `CNC(=O)CN1CCC(c2ccc3[nH]c(-c4cc(C)c5ncsc5n4)c(C(C)C)c3c2)CC1` [Example 406, 2-(4-(3-isopropyl-2-(7-methylthiazolo[5,4-b]pyridin-5-yl)-1H-indol-5-yl)piperidin-1-yl)-N-methylacetamide], the IC50 at human TLR9 was 1000 to 50000 nM; on human TLR8 it was under 100 nM; at human TLR7, under 100 nM.
Take `Cc1cc(-c2[nH]c3ccc(C4CCN(CC(=O)N(C)C)CC4)cc3c2C(C)C)nc2scnc12` [Example 407, 2-(4-(3-isopropyl-2-(7-methylthiazolo[5,4-b]pyridin-5-yl)-1H-indol-5-yl)piperidin-1-yl)-N,N-dimethylacetamide]: the IC50 against human TLR9 was 1000 to 50000 nM; against human TLR8, under 100 nM; against human TLR7, under 100 nM.
